Values after ≈ are worked out from the molar mass of the structure shown. Each block holds one compound with its values, some of them ahead of it.
Experiments:
Assay in all cases: ≥ marks a high value that may be exact or a test limit, other limits are often not marked, values filed in µg/mL are converted to µM
[1] = test system: Escherichia coli DH5alpha
Bacillus subtilis DELTA = test system: Bacillus subtilis DELTA
Candida parapsilosis = test system: Candida parapsilosis
[2] = test system: Pseudomonas aeruginosa PAO1
[3] = test system: Zymomonas mobilis ATCC 10988
[4] = test system: Streptococcus pyogenes M1T1 5448
Escherichia coli BL21 = test system: Escherichia coli BL21
[5] = test system: Escherichia coli NEB5alpha
[6] = test system: Bacillus subtilis ATCC 6051
[7] = test system: Salmonella enterica subsp. enterica serovar Pullorum C79-13
Escherichia coli 078 = test system: Escherichia coli 078
Escherichia coli K99 = test system: Escherichia coli K99
Escherichia coli K88 = test system: Escherichia coli K88
[8] = test system: Staphylococcus aureus ATCC 29213
[9] = test system: Salmonella enterica subsp. enterica serovar Typhimurium ATCC 14028
[10] = test system: Staphylococcus aureus ATCC 25923
[11] = test system: Salmonella enterica subsp. enterica serovar Typhimurium C77-31
[12] = test system: Staphylococcus epidermidis ATCC 12228
Escherichia coli UB1005 = test system: Escherichia coli UB1005
[13] = test system: Bacillus subtilis CMCC 63501
[14] = test system: Enterococcus faecalis ATCC 29212
[15] = test system: Escherichia coli ATCC 25922
[16] = test system: Staphylococcus aureus ATCC 12600
[17] = test system: Pseudomonas aeruginosa ATCC 27853
[18] = test system: Streptococcus mutans ATCC 25175
Streptococcus agalactiae = test system: Streptococcus agalactiae
Staphylococcus aureus = test system: Staphylococcus aureus
[19] = test system: Staphylococcus aureus ATCC 43300
[20] = test system: Salmonella enterica subsp. enterica serovar Choleraesuis CVCC 503

Compound: CC[C@H](C)[C@H](NC(=O)[C@H](Cc1ccccc1)NC(=O)[C@H](CCCCN)NC(=O)[C@H](CC(C)C)NC(=O)[C@H](CC(C)C)NC(=O)CN)C(=O)N[C@@H](CCCCN)C(=O)N[C@@H](CCCN=C(N)N)C(=O)N[C@@H](CC(C)C)C(=O)N[C@@H](CC(C)C)C(N)=O [GLLKFIKRLL]
- MIC [1]: ≥ 167 µM
- MIC (Bacillus subtilis DELTA): ≥ 167 µM
- MIC (Candida parapsilosis): 8.33 µM (≈ 9.99 µg/mL)
- MIC [2]: 2.5 µM (≈ 3 µg/mL)
- MIC [3]: 4.16 µM (≈ 5 µg/mL)

Compound: CC[C@H](C)[C@H](NC(=O)[C@H](CCCCN)NC(=O)[C@H](CC(C)C)NC(=O)[C@H](CC(C)C)NC(=O)CN)C(=O)N[C@H](C(=O)N[C@@H](CCCCN)C(=O)N[C@@H](CCCN=C(N)N)C(=O)N[C@@H](CC(C)C)C(=O)N[C@@H](CC(C)C)C(N)=O)[C@@H](C)CC [GLLKIIKRLL]
- MIC [1]: ≥ 171 µM
- MIC (Bacillus subtilis DELTA): 8.57 µM (≈ 9.99 µg/mL)
- MIC (Candida parapsilosis): 12.9 µM (≈ 15 µg/mL)
- MIC [2]: 2.57 µM (≈ 3 µg/mL)
- MIC [3]: 4.29 µM (≈ 5 µg/mL)

Compound: CC[C@H](C)[C@H](NC(=O)[C@H](C)NC(=O)CNC(=O)[C@H](Cc1ccccc1)NC(=O)[C@H](CC(C)C)NC(=O)CN)C(=O)N[C@@H](C)C(=O)NCC(=O)N[C@@H](Cc1ccccc1)C(=O)N[C@H](C(=O)N[C@@H](CCCCN)C(=O)NCC(=O)NCC(=O)N[C@@H](Cc1c[nH]c2ccccc12)C(=O)N1CCC[C@H]1C(=O)NCC(=O)N[C@@H](CC(C)C)C(=O)N[C@H](C(=O)N[C@@H](CCCCN)C(=O)NCC(N)=O)C(C)C)[C@@H](C)CC [GLFGAIAGFIKGGWPGLVKG]
- MIC [16]: 16 µM (≈ 31.1 µg/mL)
- MIC [17]: > 64.3 µM
- MIC [15]: 16 µM (≈ 31.1 µg/mL)
- MIC [18]: 11.3 µM (≈ 22 µg/mL)

Compound: CC[C@H](C)[C@H](N)C(=O)N[C@H](C(=O)N[C@@H](CS)C(=O)N[C@@H](CCCN=C(N)N)C(=O)N[C@@H](CCCCN)C(=O)N1CCC[C@H]1C(=O)N[C@H](C(=O)N[C@H](C(=O)N[C@@H](CS)C(=O)N[C@@H](CCCN=C(N)N)C(=O)N[C@@H](CCCCN)C(=O)N1CCC[C@H]1C(=O)N[C@H](C(=O)N[C@H](C(N)=O)[C@@H](C)CC)[C@@H](C)CC)[C@@H](C)CC)[C@@H](C)CC)[C@@H](C)CC [IICRKPIICRKPII]
- MIC [7]: ≥ 64 µM
- MIC (Streptococcus agalactiae): ≥ 64 µM
- MIC [8]: > 64 µM
- MIC [9]: 32 µM (≈ 53.3 µg/mL)
- MIC (Staphylococcus aureus): > 64 µM
- MIC [19]: > 64 µM
- MIC [11]: ≥ 32 µM
- MIC [12]: > 64 µM
- MIC (Escherichia coli UB1005): 16 µM (≈ 26.6 µg/mL)
- MIC [20]: ≥ 64 µM
- MIC [14]: > 64 µM
- MIC [15]: 16 µM (≈ 26.6 µg/mL)

Compound: CC(C)[C@H](N)C(=O)N[C@@H](CS)C(=O)N[C@@H](CCCN=C(N)N)C(=O)N[C@@H](CCCCN)C(=O)N1CCC[C@H]1C(=O)N[C@H](C(=O)N[C@H](C(=O)N[C@@H](CS)C(=O)N[C@@H](CCCN=C(N)N)C(=O)N[C@@H](CCCCN)C(=O)N1CCC[C@H]1C(=O)N[C@H](C(N)=O)C(C)C)C(C)C)C(C)C [VCRKPVVCRKPV]
- MIC [7]: ≥ 64 µM
- MIC (Streptococcus agalactiae): ≥ 64 µM
- MIC [8]: > 64 µM
- MIC [9]: > 64 µM
- MIC (Staphylococcus aureus): > 64 µM
- MIC [19]: > 64 µM
- MIC [11]: ≥ 64 µM
- MIC [12]: > 64 µM
- MIC (Escherichia coli UB1005): ≥ 64 µM
- MIC [20]: ≥ 64 µM
- MIC [14]: > 64 µM
- MIC [15]: > 64 µM

The remaining lines, values ahead:

- MIC [4]: 0.25 µM (≈ 0.761 µg/mL)
- MIC (Escherichia coli BL21): 4 µM (≈ 12.2 µg/mL)
- MIC [2]: 16 µM (≈ 48.7 µg/mL)
Compound: CC[C@H](C)[C@H](NC(=O)[C@H](CCCCN)NC(=O)[C@H](CCCCN)NC(=O)[C@H](CCCCN)NC(=O)[C@H](CC(C)C)NC(=O)[C@H](CCCN=C(N)N)NC(=O)[C@H](CCC(N)=O)NC(=O)[C@H](Cc1ccccc1)NC(=O)[C@@H](NC(=O)[C@@H](NC(=O)[C@H](CCC(=O)O)NC(=O)[C@H](CCCCN)NC(=O)CNC(=O)[C@H](C)N)[C@@H](C)O)[C@@H](C)CC)C(=O)N[C@@H](CCC(N)=O)C(=O)N[C@@H](CCC(=O)O)C(=O)N[C@@H](CCCCN)C(=O)NCC(=O)N[C@@H](CCCCN)C(=O)N[C@@H](CCCN=C(N)N)C(=O)N[C@@H](C)C(=O)N[C@H](C(=O)N[C@H](C(=O)N[C@@H](Cc1c[nH]c2ccccc12)C(=O)N[C@@H](Cc1c[nH]c2ccccc12)C(=O)O)[C@@H](C)CC)[C@@H](C)O [AGKETIFQRLKKKIQEKGKRATIWW]

- MIC [5]: ≥ 1000 µM
Compound: CC[C@H](C)[C@H](NC(=O)[C@H](C)NC(=O)[C@H](C)NC(=O)[C@H](CCCN=C(N)N)NC(=O)[C@H](CC(=O)O)NC(=O)[C@H](CC(N)=O)NC(=O)[C@@H](NC(=O)[C@@H](N)CCCCN)[C@@H](C)O)C(=O)NCC(=O)N[C@@H](CCCCN)C(=O)N[C@@H](CC(C)C)C(=O)N[C@H](C(=O)NCC(=O)N[C@@H](C)C(=O)N[C@H](C(=O)N[C@@H](CO)C(=O)N[C@@H](CO)C(=O)N[C@@H](CC(C)C)C(=O)O)[C@@H](C)O)C(C)C [KTNDRAAIGKLVGATSSL]

- MIC [6]: ≥ 1000 µM
- MIC [5]: ≥ 1000 µM
Compound: CC[C@H](C)[C@H](NC(=O)[C@H](C)NC(=O)CNC(=O)[C@H](CCCCN)NC(=O)[C@H](CCC(=O)O)NC(=O)[C@H](CCC(=O)O)NC(=O)[C@H](CC(=O)O)NC(=O)[C@H](CCC(=O)O)NC(=O)[C@H](CC(N)=O)NC(=O)[C@H](CCCN=C(N)N)NC(=O)CNC(=O)[C@H](CCC(N)=O)NC(=O)[C@H](CC(C)C)NC(=O)[C@@H](N)CCCCN)C(=O)N[C@H](C(=O)N[C@@H](CCCCN)C(=O)N[C@H](C(=O)N[C@@H](CCCCN)C(=O)O)C(C)C)C(C)C [KLQGRNEDEEKGAIVKVK]

- MIC [4]: 2 µM (≈ 6.15 µg/mL)
- MIC (Escherichia coli BL21): 1 µM (≈ 3.08 µg/mL)
- MIC [2]: 64 µM (≈ 197 µg/mL)
Compound: CC[C@H](C)[C@H](NC(=O)[C@H](Cc1ccccc1)NC(=O)[C@H](C)NC(=O)[C@H](CCCCN)NC(=O)[C@H](CCCCN)NC(=O)[C@H](Cc1c[nH]c2ccccc12)NC(=O)[C@H](CCCN=C(N)N)NC(=O)[C@H](CCCCN)NC(=O)[C@H](CCCN=C(N)N)NC(=O)[C@H](CC(C)C)NC(=O)[C@H](CCC(=O)O)NC(=O)[C@H](CCC(=O)O)NC(=O)[C@H](CC(C)C)NC(=O)[C@H](CC(C)C)NC(=O)[C@H](Cc1ccc(O)cc1)NC(=O)[C@H](CCCCN)NC(=O)[C@@H](NC(=O)[C@H](CC(C)C)NC(=O)[C@H](C)NC(=O)[C@H](CCC(N)=O)NC(=O)[C@H](CCCN=C(N)N)NC(=O)CNC(=O)[C@H](C)N)[C@@H](C)O)C(=O)N[C@@H](C)C(=O)N[C@@H](Cc1c[nH]c2ccccc12)C(=O)O [AGRQALTKYLLEELRKRWKKAFIAW]

- MIC [7]: 2 µM (≈ 3.19 µg/mL)
- MIC (Escherichia coli 078): 4 µM (≈ 6.39 µg/mL)
- MIC (Escherichia coli K99): 4 µM (≈ 6.39 µg/mL)
- MIC (Escherichia coli K88): 2 µM (≈ 3.19 µg/mL)
- MIC [8]: 8 µM (≈ 12.8 µg/mL)
- MIC [9]: 8 µM (≈ 12.8 µg/mL)
- MIC [10]: 16 µM (≈ 25.6 µg/mL)
- MIC [11]: 16 µM (≈ 25.6 µg/mL)
- MIC [12]: 16 µM (≈ 25.6 µg/mL)
- MIC (Escherichia coli UB1005): 16 µM (≈ 25.6 µg/mL)
- MIC [13]: 2 µM (≈ 3.19 µg/mL)
- MIC [14]: 4 µM (≈ 6.39 µg/mL)
- MIC [15]: 16 µM (≈ 25.6 µg/mL)
Compound: CC[C@H](C)[C@H](NC(=O)[C@H](Cc1c[nH]c2ccccc12)NC(=O)[C@H](CCCCN)NC(=O)[C@H](CC(C)C)NC(=O)[C@@H](NC(=O)[C@H](Cc1c[nH]c2ccccc12)NC(=O)CNC(=O)[C@@H](NC(=O)[C@H](CCCCN)NC(=O)[C@H](Cc1c[nH]c2ccccc12)NC(=O)[C@H](CC(C)C)NC(=O)[C@@H](N)CCCN=C(N)N)[C@@H](C)CC)C(C)C)C(N)=O [RLWKIGWVLKWI]

Reference: DBAASP
